Assay results reported in a compilation of properties of binary mixtures (doi:10.1016/j.molliq.2012.02.014).

Assay: xn = mol fraction of the nth substance listed
Details: 101 kPa

CN(CCO)CCO + CCCCCC[n+]1ccn(C)c1.O=S(=O)([N-]S(=O)(=O)C(F)(F)F)C(F)(F)F
x1 = 1
Details	viscosity [mPa·s]
308.15 K	46.2
323.15 K	24.7

CCCCCC[n+]1ccn(C)c1.O=S(=O)([N-]S(=O)(=O)C(F)(F)F)C(F)(F)F + CN(CCO)CCO
viscosity [mPa·s]
Details	x2 = 0	x2 = 0.0989	x2 = 0.1899	x2 = 0.2977	x2 = 0.3999	x2 = 0.4988	x2 = 0.6075	x2 = 0.7049	x2 = 0.801	x2 = 0.899
303.15 K	–	52.4	46.6	40.8	37	35.1	39	44.3	–	55.1
308.15 K	50.4	–	42.1	38	–	31.3	33.7	37.4	40.8	43.7
313.15 K	41.4	39.2	36.7	34	–	29.8	–	31.8	34.3	–
318.15 K	35	33.1	30.8	27.9	25.4	23.9	23.8	–	27.3	28.9
323.15 K	28.8	27.7	26	–	22.8	22.1	22.4	–	23.7	24.4
